Measurements reported in PubChem BioAssay (NCI).
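Five concentrations, 48 hours, 96-well plates. GI50: concentration for 50% inhibition of growth. TGI: concentration producing complete growth inhibition.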

Assays:
Test in all cases: DTP human tumour cell line panel, 48 h
HOP-62 NSCLC = tested on: HOP-62 NSCLC
MDA-MB-435 = tested on: MDA-MB-435
UO-31 renal = tested on: UO-31 renal
786-0 renal = tested on: 786-0 renal
HCT-116 colon = tested on: HCT-116 colon
SK-MEL-2 melanoma = tested on: SK-MEL-2 melanoma
NCI-H522 lung = tested on: NCI-H522 lung
SK-MEL-28 melanoma = tested on: SK-MEL-28 melanoma
OVCAR-5 ovarian = tested on: OVCAR-5 ovarian
BT-549 breast = tested on: BT-549 breast
UACC-257 melanoma = tested on: UACC-257 melanoma
IGROV1 ovarian = tested on: IGROV1 ovarian
SN12C renal = tested on: SN12C renal
NCI/ADR-RES ovarian = tested on: NCI/ADR-RES ovarian
PC-3 prostate = tested on: PC-3 prostate
RPMI-8226 leukemia = tested on: RPMI-8226 leukemia
MOLT-4 leukemia = tested on: MOLT-4 leukemia
NCI-H460 lung = tested on: NCI-H460 lung
LOX IMVI melanoma = tested on: LOX IMVI melanoma
SW-620 colon = tested on: SW-620 colon
SF-268 CNS = tested on: SF-268 CNS
EKVX NSCLC = tested on: EKVX NSCLC
TK-10 renal = tested on: TK-10 renal
RXF 393 renal = tested on: RXF 393 renal
HT29 colon = tested on: HT29 colon
NCI-H226 lung = tested on: NCI-H226 lung
SK-OV-3 ovarian = tested on: SK-OV-3 ovarian
MCF7 breast = tested on: MCF7 breast
HOP-92 NSCLC = tested on: HOP-92 NSCLC
SR leukemia = tested on: SR leukemia
MDA-MB-231 breast = tested on: MDA-MB-231 breast
KM12 colon = tested on: KM12 colon
CAKI-1 renal = tested on: CAKI-1 renal
A498 renal = tested on: A498 renal
M14 melanoma = tested on: M14 melanoma
SF-539 CNS = tested on: SF-539 CNS
UACC-62 melanoma = tested on: UACC-62 melanoma
COLO 205 colon = tested on: COLO 205 colon
HCC-2998 colon = tested on: HCC-2998 colon
HS 578T breast = tested on: HS 578T breast
T-47D breast = tested on: T-47D breast
OVCAR-3 ovarian = tested on: OVCAR-3 ovarian
NCI-H23 lung = tested on: NCI-H23 lung
SNB-75 CNS = tested on: SNB-75 CNS
CCRF-CEM leukemia = tested on: CCRF-CEM leukemia
A549 NSCLC = tested on: A549 NSCLC
ACHN renal = tested on: ACHN renal
SK-MEL-5 melanoma = tested on: SK-MEL-5 melanoma
OVCAR-4 ovarian = tested on: OVCAR-4 ovarian
HCT-15 colon = tested on: HCT-15 colon
U251 CNS = tested on: U251 CNS
SNB-19 CNS = tested on: SNB-19 CNS
MALME-3M melanoma = tested on: MALME-3M melanoma
OVCAR-8 ovarian = tested on: OVCAR-8 ovarian
DU-145 prostate = tested on: DU-145 prostate
K-562 leukemia = tested on: K-562 leukemia
SF-295 CNS = tested on: SF-295 CNS

## O=c1oc2ccc(Br)cc2c(=O)n1-c1ccc(F)cc1F
HOP-62 NSCLC
  GI50: 2.45 µM
  TGI: 8.3 µM
MDA-MB-435
  GI50: 2.85 µM
  TGI: 10.4 µM
UO-31 renal
  GI50: 1.28 µM
  TGI: 5.93 µM
786-0 renal
  GI50: 3.23 µM
  TGI: 11.6 µM
HCT-116 colon
  GI50: 2.48 µM
  TGI: 8.37 µM
SK-MEL-2 melanoma
  GI50: 2.12 µM
  TGI: 6.13 µM
NCI-H522 lung
  GI50: 2.6 µM
  TGI: 14.9 µM
SK-MEL-28 melanoma
  GI50: 1.04 µM
  TGI: 5.8 µM
OVCAR-5 ovarian
  GI50: 3.79 µM
  TGI: > 100 µM
BT-549 breast
  GI50: 1.79 µM
  TGI: 5.5 µM
UACC-257 melanoma
  GI50: 1.78 µM
  TGI: 6.67 µM
IGROV1 ovarian
  GI50: 1.94 µM
  TGI: 24.8 µM
SN12C renal
  GI50: 2 µM
  TGI: 8.61 µM
NCI/ADR-RES ovarian
  GI50: 2.9 µM
  TGI: 30.5 µM
PC-3 prostate
  GI50: 2.85 µM
  TGI: 12.7 µM
RPMI-8226 leukemia
  GI50: 1.66 µM
  TGI: 7.07 µM
MOLT-4 leukemia
  GI50: 3.12 µM
  TGI: > 100 µM
NCI-H460 lung
  GI50: 2.79 µM
  TGI: 25.6 µM
LOX IMVI melanoma
  GI50: 2.79 µM
  TGI: 12.4 µM
SW-620 colon
  GI50: 2.96 µM
  TGI: 16.7 µM
SF-268 CNS
  GI50: 2.62 µM
  TGI: 21.8 µM
EKVX NSCLC
  GI50: 2.03 µM
  TGI: 9.32 µM
TK-10 renal
  GI50: 4.53 µM
  TGI: 19.2 µM
RXF 393 renal
  GI50: 2.27 µM
  TGI: 6.34 µM
HT29 colon
  GI50: 3.45 µM
  TGI: 27.8 µM
NCI-H226 lung
  GI50: 2.32 µM
  TGI: 13.8 µM
SK-OV-3 ovarian
  GI50: 0.398 µM
  TGI: 3.38 µM
MCF7 breast
  GI50: 2.57 µM
  TGI: > 100 µM
HOP-92 NSCLC
  GI50: 0.425 µM
  TGI: 4.74 µM
SR leukemia
  GI50: 2.67 µM
  TGI: > 100 µM
MDA-MB-231 breast
  GI50: 2.11 µM
  TGI: 6.96 µM
KM12 colon
  GI50: 2.75 µM
  TGI: 8.49 µM
CAKI-1 renal
  GI50: 1.72 µM
  TGI: 6.1 µM
A498 renal
  GI50: 1.16 µM
  TGI: 3.02 µM
M14 melanoma
  GI50: 1.59 µM
  TGI: 7.55 µM
SF-539 CNS
  GI50: 2.17 µM
  TGI: 9.21 µM
UACC-62 melanoma
  GI50: 1.01 µM
  TGI: 4.51 µM
COLO 205 colon
  GI50: 3.92 µM
  TGI: 16.4 µM
HCC-2998 colon
  GI50: 3.54 µM
  TGI: 18.4 µM
HS 578T breast
  GI50: 2.11 µM
  TGI: 8.01 µM
T-47D breast
  GI50: 1.77 µM
  TGI: 6.94 µM
OVCAR-3 ovarian
  GI50: 2.41 µM
  TGI: 11.4 µM
NCI-H23 lung
  GI50: 2.55 µM
  TGI: 10.1 µM
SNB-75 CNS
  GI50: 1.02 µM
  TGI: 3.98 µM
CCRF-CEM leukemia
  GI50: 3.91 µM
  TGI: > 100 µM
A549 NSCLC
  GI50: 3.17 µM
  TGI: > 100 µM
ACHN renal
  GI50: 2.44 µM
  TGI: 7.99 µM
SK-MEL-5 melanoma
  GI50: 1.38 µM
  TGI: 2.82 µM
OVCAR-4 ovarian
  GI50: 1.65 µM
  TGI: 8.45 µM
HCT-15 colon
  GI50: 3.04 µM
  TGI: 12.8 µM
U251 CNS
  GI50: 2.51 µM
  TGI: 31.5 µM
SNB-19 CNS
  GI50: 2.3 µM
  TGI: > 100 µM
MALME-3M melanoma
  GI50: 1.59 µM
  TGI: 5.87 µM
OVCAR-8 ovarian
  GI50: 2.81 µM
  TGI: 24.2 µM
DU-145 prostate
  GI50: 3.82 µM
  TGI: 27.7 µM
K-562 leukemia
  GI50: 2.4 µM
  TGI: > 100 µM
SF-295 CNS
  GI50: 1.88 µM
  TGI: 3.71 µM
